{"source": "patent US4156009A", "about": "“Diazepine derivatives” (Hexachimie, priority 1977, dated 1979)", "key": {"[1]": {"system": "ulcers caused by phenylbutazone", "experiment": "Protective activity as regards ulcers caused by phenylbutazone", "type": "in vivo, rat (male, OFA strain)", "details": "for Ulceration Index: maximum index 300", "description": "Male rats, of the OFA strain, weighing 160-180 g are placed on a diet of water 24 hours before the oral administration of the product studied (1 cm^3 /100 g). 30 minutes later, the rats receive 150 mg/kg phenylbutazone (1 cm^3 /100 g) orally.\nThe stomachs are removed 6 hours after the last treatment. Each stomach is classified according to the following scale:\nThe average of the results for a batch, multiplied by the percentage of rats having ulcers in this batch, gives an ulceration index whose maximum is 300.\nThe following Table I gives the ulceration indices and the protective dose 50 (PD50) which corresponds to the index 150."}, "[2]": {"experiment": "Acute toxicity", "set-up": "species or system rat", "details": "in vivo"}, "[3]": {"system": "Shay ulcers", "experiment": "Activity on Shay ulcers (pylorus ligation)", "type": "in vivo, rat (male, OFA strain)", "details": "2 hours after binding; for Pepsin / pH / Volume / Acidity free / Acidity total: gastric liquid; for Acidity free / Acidity total: potentiometry; for Ulcers: number in the rumen; for Acidity free ds the secretion / Acidity total ds the secretion / Pepsin ds the secretion: whole secretion", "description": "Male rats of the OFA strain, weighing 190-210 g, receive a solution of 20% glucose and […] sodium chloride as their only food for 3 days.\nUnder an ether anaesthetic, the pylorus is tied, while taking care not to include blood vessels in the binding. The tested product is administered intraperitoneally and the stomach is removed 2 hours after the binding. The gastric liquid is collected and the following parameters are measured:\nfree acidity (potentiometry)\ntotal acidity (potentiometry)\npeptic activity (hydrolysis of albumen of oxen and measurement of the tyrosine liberated).\nThe number of ulcers in the rumen are counted."}, "[4]": {"details": "8 mg/kg intraperitoneally, p < 0.05"}, "[5]": {"details": "16 mg/kg intraperitoneally, p < 0.01"}, "[6]": {"details": "32 mg/kg intraperitoneally, p < 0.001"}, "[7]": {"details": "32 mg/kg intraperitoneally, p < 0.01"}}, "data": [{"smiles": "CN1C(=O)CN=C(c2ccccc2)c2c(C3CC3)csc21", "note": "[Example 6, 6-Cyclopropyl-1,3-dihydro-1-methyl-5-phenyl-2-oxo-2H-thieno[2,3-e]diazepine]", "values": [{"measurement": "Ulceration Index", "setting": "[1]; 16 mg/kg orally", "value": 240}, {"measurement": "Ulceration Index", "setting": "[1]; 32 mg/kg orally", "value": 179}, {"measurement": "Ulceration Index", "setting": "[1]; 64 mg/kg orally", "value": 62}, {"measurement": "Ulceration Index", "setting": "[1]; 128 mg/kg orally", "value": 29}, {"measurement": "ED50", "setting": "[1]; Rattus norvegicus, po, orally, corresponds to ulceration index 150, read-out: PD50 (protective dose 50)", "value": 39, "unit": "mg/kg"}, {"measurement": "LD50", "setting": "[2]; po, orally in the rat, read-out: lethal dose LD50", "value": 915, "unit": "mg/kg"}, {"measurement": "selectivity ratio", "setting": "[2]; LD50 / PD50, oral, rat, read-out: ratio of toxicity/activity or therapeutic index", "value": "~23"}, {"measurement": "Pepsin", "setting": "[3]; 8 mg/kg intraperitoneally, ns", "value": 0.67, "unit": "mg/mL"}, {"measurement": "pH", "setting": "[3]; 8 mg/kg intraperitoneally, ns", "value": 1.19}, {"measurement": "Volume", "setting": "[3]; [4]", "value": 4.0, "unit": "cm^3"}, {"measurement": "Acidity free", "setting": "[3]; 8 mg/kg intraperitoneally, ns", "value": 91, "unit": "mEq/l"}, {"measurement": "Acidity total", "setting": "[3]; 8 mg/kg intraperitoneally, ns", "value": 109, "unit": "mEq/l"}, {"measurement": "Pepsin", "setting": "[3]; 16 mg/kg intraperitoneally, ns", "value": 0.67, "unit": "mg/mL"}, {"measurement": "pH", "setting": "[3]; 16 mg/kg intraperitoneally, ns", "value": 1.21}, {"measurement": "Volume", "setting": "[3]; [5]", "value": 2.7, "unit": "cm^3"}, {"measurement": "Acidity free", "setting": "[3]; 16 mg/kg intraperitoneally, ns", "value": 82, "unit": "mEq/l"}, {"measurement": "Acidity total", "setting": "[3]; 16 mg/kg intraperitoneally, ns", "value": 102, "unit": "mEq/l"}, {"measurement": "Pepsin", "setting": "[3]; 32 mg/kg intraperitoneally, ns", "value": 0.64, "unit": "mg/mL"}, {"measurement": "Volume", "setting": "[3]; [6]", "value": 1.7, "unit": "cm^3"}, {"measurement": "pH", "setting": "[3]; 32 mg/kg intraperitoneally, p < 0.05", "value": 1.67}, {"measurement": "Acidity free", "setting": "[3]; [7]", "value": 56.5, "unit": "mEq/l"}, {"measurement": "Acidity total", "setting": "[3]; [7]", "value": 80, "unit": "mEq/l"}, {"measurement": "Ulcers", "setting": "[3]; 8 mg/kg intraperitoneally", "value": 0}, {"measurement": "Ulcers", "setting": "[3]; 16 mg/kg intraperitoneally", "value": 0}, {"measurement": "Ulcers", "setting": "[3]; 32 mg/kg intraperitoneally", "value": 0}, {"measurement": "Acidity free ds the secretion", "setting": "[3]; 8 mg/kg intraperitoneally, ns", "value": 388, "unit": "mEq/l"}, {"measurement": "Acidity total ds the secretion", "setting": "[3]; 8 mg/kg intraperitoneally, ns", "value": 459, "unit": "mEq/l"}, {"measurement": "Pepsin ds the secretion", "setting": "[3]; [4]", "value": 2.66, "unit": "mg"}, {"measurement": "Acidity free ds the secretion", "setting": "[3]; [5]", "value": 275, "unit": "mEq/l"}, {"measurement": "Acidity total ds the secretion", "setting": "[3]; [5]", "value": 335, "unit": "mEq/l"}, {"measurement": "Pepsin ds the secretion", "setting": "[3]; [5]", "value": 1.83, "unit": "mg"}, {"measurement": "Acidity free ds the secretion", "setting": "[3]; [6]", "value": 145, "unit": "mEq/l"}, {"measurement": "Acidity total ds the secretion", "setting": "[3]; [6]", "value": 189, "unit": "mEq/l"}, {"measurement": "Pepsin ds the secretion", "setting": "[3]; [6]", "value": 1.14, "unit": "mg"}]}]}
